Results as given in patent US4943576A, “Substituted quinoxalyl-imidazolidine-2,4-diones, processes for their preparation, their use as medicaments and pharmaceutical preparations” (Hoechst Aktiengesellschaft, priority 1987, dated 1990).

Legend:
[1] = target: aldose reductase (Rattus norvegicus, UniProt P07943); assay: In vitro inhibition of enzyme activity (rat hepatic enzyme preparation); type: biochemical; settings: read-out: IC50 (molar concentration required for 50% inhibition of aldose reductase)
Source text: 1. in vitro inhibition of the enzyme activity of isolated aldose reductase;
In vitro inhibition of enzyme activity (rat hepatic enzyme preparation)
The inhibiting values on aldose reductase are summarized in Table 1 for some compounds according to the invention (IC50 [M] denotes the molar concentration of the compound which is required for 50% inhibition).

[2] = system: sorbitol accumulation in erythrocytes; assay: Reduction of increased sorbitol levels in streptozotocin-diabetic rats, erythrocytes; type: in vivo; settings: 25 mg/kg oral in Tylose suspension, vs untreated controls
Source text: (§1) 3. reduction of increased sorbitol levels in streptozotocin-diabetic rats in vivo;
(§2) Reduction of increased sorbitol levels
(§3) The oral administration in ®Tylose suspension (=suspension of a water-soluble cellulose ether), of the substances mentioned as examples in the following Table 3 to streptozotocin-diabetic rats leads to a great reduction in the sorbitol accumulation in erythrocytes and in the nerve tissue in comparison with untreated control animals.

[3] = system: sorbitol accumulation in nerve tissue; assay: Reduction of increased sorbitol levels in streptozotocin-diabetic rats, nerve tissue; type: in vivo; settings: 25 mg/kg oral in Tylose suspension, vs untreated controls
Source text: as §1, §2, §3

[4] = system: sorbitol accumulation in nerve; assay: In vitro inhibition of sorbitol accumulation, nerve (tissue of normal rats); type: cell-based; settings: Rattus norvegicus, 3 μmol/l
Procedure: (§4) 2. in vitro inhibition of the sorbitol accumulation in erythrocytes in the lens or in the sciatic nerve of normal or streptozotocin-diabetic rats;
(§5) In vitro inhibition of sorbitol accumulation (tissue of normal rats)
(§6) The inhibiting values summarized in Table 2 were determined for some of the compounds according to the invention at a concentration of 3 μmol/l.

[5] = system: sorbitol accumulation in erythrocytes; assay: In vitro inhibition of sorbitol accumulation, erythrocytes (tissue of normal rats); type: cell-based; settings: Rattus norvegicus, Erythrocyte, 3 μmol/l
Procedure: as §4, §5, §6

Q: With “5-(6'/7'-Fluoro-3'-methyl-quinoxalin-2'-yl)-5-methyl-imidazolidine-2,4-dion [Example 26]” as the compound, how does the IC50 [1] read?
A: The IC50 was 280 µM.

Q: Which results are given for “5-(6'/7'-Fluoro-quinoxalin-2'-yl)-5-methyl-imidazolidine-2,4-dione [Example 25]”?
A: Sorbitol content after 5 hours in erythrocytes [2]: -66%; Sorbitol content after 5 hours in nerve tissue [3]: -70%

Q: What does the source list for `Cc1nc2ccccc2nc1C1(C)NC(=O)NC1=O` (single isomer, unassigned; (+)) [Example 33, (+)-5-Methyl-5-(3'-methyl-quinoxalin-2'-yl)-imidazolidine-2,4-dione]?
A: inhibition at 3 µM [4]: -30%; inhibition at 3 µM [5]: -26%

Q: Which results are given for `CCc1nc2ccc(C3(C)NC(=O)NC3=O)cc2nc1CC` (centres unmarked) [Example 2, 5-(2',3'-Diethyl-quinoxalin-6'-yl)-5-methyl-imidazolidine2,4-dione]?
A: inhibition at 3 µM [4]: -30%; Sorbitol content after 5 hours in erythrocytes [2]: -57%; Sorbitol content after 5 hours in nerve tissue [3]: -22%

Q: Which inhibition at 3 µM [4] does the source give for `CC1(c2cnc3ccccc3n2)NC(=O)NC1=O` (centres unmarked) [Example 18, 5-(Quinoxalin-2'-yl)-5-methyl-imidazolidine-2,4-dione] here?
A: Its inhibition at 3 µM is -39%.

Q: And the inhibition at 3 µM [5]?
A: The inhibition at 3 µM was -10%.

Q: With `Cc1cc2nc(C)c(C3(C)NC(=O)NC3=O)nc2cc1C` (centres unmarked) [Example 20, 5-Methyl-5-(3',6',7'-trimethyl-quinoxalin-2'-yl)-imidazolidine-2,4-dione hydrate] as the compound, how does the inhibition at 3 µM [5] read?
A: The inhibition at 3 µM was -29%.

Q: What does the source list for `COc1cc2ncc(C3(C)NC(=O)NC3=O)nc2cc1OC` (centres unmarked) [Example 21, 5-(6',7'-Dimethoxy-quinoxalin-2'-yl)-5-methyl-imidazolidine-2,4-dione]?
A: inhibition at 3 µM [4]: -38%; inhibition at 3 µM [5]: -26%

Q: Which inhibition at 3 µM [4] does the source give for `Cc1nc2ccccc2nc1C1(C)NC(=O)NC1=O` (centres unmarked) [Example 23, 5-Methyl-5-(3'-methyl-quinoxalin-2'-yl)-imidazolidine-2,4-dione] here?
A: The inhibition at 3 µM was -65%.

Q: What about the inhibition at 3 µM [5] of the same compound?
A: The inhibition at 3 µM was -21%.

Q: What about the “Sorbitol content after 5 hours in erythrocytes” value [2] of the same compound?
A: The value was -72%.

Q: And the “Sorbitol content after 5 hours in nerve tissue” value [3]?
A: Its value is -83%.
